In US20250332178A1, “METHODS OF TREATING MYCOBACTERIAL INFECTIONS USING TETRACYCLINE COMPOUNDS” (priority 2018, published 2025):
≈ marks a conversion by molar mass, not a printed value.

How the values were obtained:
[1] = test system: M. smegmatis group; experiment: MIC (CLSI broth dilution), RGM isolates; type: cell-based; settings: Mycolicibacterium smegmatis
[2] = test system: M. immunogenum group; experiment: MIC (CLSI broth dilution), RGM isolates; type: cell-based; settings: M. immunogenum
[3] = test system: M. chelonae; experiment: MIC (CLSI broth dilution), RGM isolates; type: cell-based; settings: Mycobacteroides chelonae
[4] = test system: M. fortuitum group; experiment: MIC (CLSI broth dilution), RGM isolates; type: cell-based; settings: Mycolicibacterium fortuitum
[5] = test system: M. mucogenium group; experiment: MIC (CLSI broth dilution), RGM isolates; type: cell-based
[6] = test system: Mycobacterium abscessus; experiment: MIC by broth microdilution in CAMHB, clinical isolates; type: cell-based; settings: Mycobacteroides abscessus
[7] = test system: Mycobacterium chelonae; experiment: as above; type: cell-based
[8] = test system: Mycobacterium fortuitum; experiment: as above; type: cell-based; settings: Mycolicibacterium fortuitum
[9] = test system: rapid-growing mycobacteria (RGM) isolates; experiment: MIC (CLSI broth dilution), all RGM isolates; type: cell-based, nontuberculous mycobacteria
[10] = test system: M. abscessus subsp. abscessus CIP 104536; experiment: MIC according to CLSI guidelines; settings: Mycobacteroides abscessus, CIP104536, read-out: Minimal Inhibitory Concentration (MIC)
Protocol: Vials with M. abscessus suspensions were stored at −80° C. Cultures on solid medium were grown on Mueller Hinton II agar (BD), supplemented with 10% OADC and 0.5% glycerol for 10 days at 37° C. with 5% CO2.

[11] = test system: M. abscessus complex; experiment: MIC (CLSI broth dilution), RGM isolates; type: cell-based; settings: Mycobacteroides abscessus

Q: With CN(C)c1cc(NC(=O)CNC(C)(C)C)c(O)c2c1C[C@H]1C[C@H]3[C@H](N(C)C)C(O)=C(C(N)=O)C(=O)[C@@]3(O)C(O)=C1C2=O [Tigecycline, tigecycline] as the compound, how does the MIC ([1]; isolate 49, M. smegmatis group, M. goodii) read?
A: ≤ 0.015 µg/mL

Q: What about the MIC ([1]; isolate 50, M. smegmatis group, M. wolinskyi) of the same compound?
A: 0.03 µg/mL (≈ 0.0512 µM)

Q: And the MIC ([2]; isolate 35, M. immunogenum group)?
A: 0.5 µg/mL (≈ 0.854 µM)

Q: What about the MIC ([2]; isolate 36, M. immunogenum group) of the same compound?
A: 0.12 µg/mL (≈ 0.205 µM)

Q: What about the MIC ([2]; isolate 37, M. immunogenum group) of the same compound?
A: 0.5 µg/mL (≈ 0.854 µM)

Q: What about the MIC ([2]; isolate 38, M. immunogenum group) of the same compound?
A: 0.5 µg/mL (≈ 0.854 µM)

Q: And the MIC ([3]; isolate 18, M. chelonae)?
A: 0.12 µg/mL (≈ 0.205 µM)

Q: What about the MIC ([3]; isolate 19, M. chelonae) of the same compound?
A: 0.25 µg/mL (≈ 0.427 µM)

Q: What about the MIC ([3]; isolate 20, M. chelonae) of the same compound?
A: 0.12 µg/mL (≈ 0.205 µM)

Q: What about the MIC ([3]; isolate 21, M. chelonae) of the same compound?
A: 0.5 µg/mL (≈ 0.854 µM)

Q: And the MIC ([3]; isolate 22, M. chelonae)?
A: 0.25 µg/mL (≈ 0.427 µM)

Q: And the MIC ([4]; isolate 23, M. fortuitum group, M. fortuitum)?
A: 0.03 µg/mL (≈ 0.0512 µM)

Q: What about the MIC ([4]; isolate 24, M. fortuitum group, M. fortuitum) of the same compound?
A: 0.12 µg/mL (≈ 0.205 µM)

Q: And the MIC ([4]; isolate 25, M. fortuitum group, M. fortuitum)?
A: ≤ 0.015 µg/mL

Q: And the MIC ([4]; isolate 26, M. fortuitum group, M. porcinum)?
A: ≤ 0.015 µg/mL

Q: What about the MIC ([4]; isolate 27, M. fortuitum group, M. porcinum) of the same compound?
A: 0.03 µg/mL (≈ 0.0512 µM)

Q: And the MIC ([4]; isolate 28, M. fortuitum group, M. porcinum/M. boenickei)?
A: 0.03 µg/mL (≈ 0.0512 µM)

Q: What about the MIC ([4]; isolate 29, M. fortuitum group, M. porcinum/M. boenickei) of the same compound?
A: 0.03 µg/mL (≈ 0.0512 µM)

Q: And the MIC ([4]; isolate 30, M. fortuitum group, M. porcinum/M. boenickei)?
A: 0.03 µg/mL (≈ 0.0512 µM)

Q: What about the MIC ([4]; isolate 31, M. fortuitum group, M. senegalense) of the same compound?
A: 0.06 µg/mL (≈ 0.102 µM)

Q: What about the MIC ([4]; isolate 32, M. fortuitum group, M. senegalense) of the same compound?
A: 0.03 µg/mL (≈ 0.0512 µM)

Q: And the MIC ([4]; isolate 33, M. fortuitum group, M. senegalense)?
A: 0.03 µg/mL (≈ 0.0512 µM)

Q: What about the MIC ([4]; isolate 34, M. fortuitum group, M. senegalense) of the same compound?
A: 0.03 µg/mL (≈ 0.0512 µM)

Q: What about the MIC ([5]; isolate 39, M. mucogenicum group, M. mucogenicum) of the same compound?
A: 0.12 µg/mL (≈ 0.205 µM)

Q: What about the MIC ([5]; isolate 40, M. mucogenicum group, M. mucogenicum) of the same compound?
A: 0.06 µg/mL (≈ 0.102 µM)

Q: And the MIC ([5]; isolate 41, M. mucogenicum group, M. mucogenicum)?
A: 0.06 µg/mL (≈ 0.102 µM)

Q: What about the MIC ([5]; isolate 42, M. mucogenicum group, M. mucogenicum) of the same compound?
A: 0.12 µg/mL (≈ 0.205 µM)

Q: What about the MIC ([5]; isolate 43, M. mucogenicum group, M. phocaicum) of the same compound?
A: 0.12 µg/mL (≈ 0.205 µM)

Q: What about the MIC ([5]; isolate 44, M. mucogenicum group, M. phocaicum) of the same compound?
A: 0.06 µg/mL (≈ 0.102 µM)

Q: And the MIC ([5]; isolate 45, M. mucogenicum group, M. phocaicum)?
A: 0.25 µg/mL (≈ 0.427 µM)

Q: What about the MIC ([5]; isolate 46, M. mucogenicum group, M. phocaicum) of the same compound?
A: 0.06 µg/mL (≈ 0.102 µM)

Q: What about the MIC ([5]; isolate 47, M. mucogenicum group, M. phocaicum) of the same compound?
A: 0.25 µg/mL (≈ 0.427 µM)

Q: And the MIC ([5]; isolate 48, M. mucogenicum group, M. phocaicum)?
A: 0.03 µg/mL (≈ 0.0512 µM)

Q: What about the MIC50 [6] of the same compound?
A: 1 µg/mL (≈ 1.71 µM)

Q: What about the MIC90 [6] of the same compound?
A: 2 µg/mL (≈ 3.41 µM)

Q: What about the MIC ([6]; isolate No. 1, BB2) of the same compound?
A: 2 µg/mL (≈ 3.41 µM)

Q: And the MIC ([6]; isolate No. 2, BB4)?
A: 2 µg/mL (≈ 3.41 µM)

Q: And the MIC ([6]; isolate No. 3, 5922)?
A: 0.25 µg/mL (≈ 0.427 µM)

Q: What about the MIC ([6]; isolate No. 4, BB3) of the same compound?
A: 0.06 µg/mL (≈ 0.102 µM)

Q: What about the MIC ([6]; isolate No. 5, BB6) of the same compound?
A: 0.125 µg/mL (≈ 0.213 µM)

Q: And the MIC ([6]; isolate No. 6, 5908)?
A: 2 µg/mL (≈ 3.41 µM)

Q: And the MIC ([6]; isolate No. 7, BB7)?
A: 2 µg/mL (≈ 3.41 µM)

Q: What about the MIC ([6]; isolate No. 8, 6031) of the same compound?
A: 1 µg/mL (≈ 1.71 µM)

Q: And the MIC ([6]; isolate No. 9, 5785)?
A: 0.5 µg/mL (≈ 0.854 µM)

Q: And the MIC ([6]; isolate No. 11, 6111)?
A: 0.5 µg/mL (≈ 0.854 µM)

Q: What about the MIC ([6]; isolate No. 12, 6005) of the same compound?
A: 0.5 µg/mL (≈ 0.854 µM)

Q: What about the MIC ([6]; isolate No. 16, BB5) of the same compound?
A: 1 µg/mL (≈ 1.71 µM)

Q: And the MIC ([6]; isolate No. 19, 5960)?
A: 8 µg/mL (≈ 13.7 µM)

Q: And the MIC ([6]; isolate No. 23, 6025)?
A: 1 µg/mL (≈ 1.71 µM)

Q: What about the MIC50 [7] of the same compound?
A: 0.06 µg/mL (≈ 0.102 µM)

Q: And the MIC50 [8]?
A: 0.25 µg/mL (≈ 0.427 µM)

Q: What about the MIC90 [8] of the same compound?
A: 0.25 µg/mL (≈ 0.427 µM)

Q: What about the MIC ([8]; isolate No. 1, 3349) of the same compound?
A: 0.25 µg/mL (≈ 0.427 µM)

Q: What about the MIC ([8]; isolate No. 2, 3499) of the same compound?
A: 0.015 µg/mL (≈ 0.0256 µM)

Q: And the MIC ([8]; isolate No. 3, 2797)?
A: 0.06 µg/mL (≈ 0.102 µM)

Q: And the MIC ([8]; isolate No. 4, 32)?
A: 0.25 µg/mL (≈ 0.427 µM)

Q: What about the MIC ([8]; isolate No. 5, 33) of the same compound?
A: 0.125 µg/mL (≈ 0.213 µM)

Q: What about the MIC ([8]; isolate No. 6, 3489) of the same compound?
A: 0.015 µg/mL (≈ 0.0256 µM)

Q: What about the MIC ([8]; isolate No. 7, 3491) of the same compound?
A: 0.015 µg/mL (≈ 0.0256 µM)

Q: And the MIC ([8]; isolate No. 8, 54)?
A: 0.03 µg/mL (≈ 0.0512 µM)

Q: What about the MIC ([8]; isolate No. 9, 38) of the same compound?
A: 0.06 µg/mL (≈ 0.102 µM)

Q: What about the MIC ([8]; isolate No. 10, 36) of the same compound?
A: 0.03 µg/mL (≈ 0.0512 µM)

Q: And the MIC ([8]; isolate No. 11, 3480)?
A: 0.25 µg/mL (≈ 0.427 µM)

Q: And the MIC ([8]; isolate No. 12, 3126)?
A: 0.25 µg/mL (≈ 0.427 µM)

Q: What about the MIC ([8]; isolate No. 13, 3579) of the same compound?
A: 0.25 µg/mL (≈ 0.427 µM)

Q: What about the MIC ([8]; isolate No. 14, 7484) of the same compound?
A: 0.5 µg/mL (≈ 0.854 µM)

Q: And the MIC ([8]; isolate No. 15, 3488)?
A: 0.25 µg/mL (≈ 0.427 µM)

Q: And the MIC ([8]; isolate No. 16, 3276)?
A: 0.25 µg/mL (≈ 0.427 µM)

Q: And the MIC ([8]; isolate No. 17, 3442)?
A: 1 µg/mL (≈ 1.71 µM)

Q: And the MIC ([8]; isolate No. 18, 3316)?
A: 0.25 µg/mL (≈ 0.427 µM)

Q: And the MIC ([8]; isolate No. 19, 3490)?
A: 0.25 µg/mL (≈ 0.427 µM)

Q: What about the MIC ([8]; isolate No. 20, 2491) of the same compound?
A: 0.5 µg/mL (≈ 0.854 µM)

Q: And the MIC50 [9]?
A: 0.125 µg/mL (≈ 0.213 µM)

Q: And the MIC90 [9]?
A: 0.25 µg/mL (≈ 0.427 µM)

Q: What about the MIC [10] of the same compound?
A: 4 µg/mL (≈ 6.83 µM)

Q: And the MIC ([11]; isolate 1, M. abscessus complex, erm gene type MAB30)?
A: 0.12 µg/mL (≈ 0.205 µM)

Q: What about the MIC ([11]; isolate 2, M. abscessus complex, erm gene type MAB30) of the same compound?
A: 0.12 µg/mL (≈ 0.205 µM)

Q: And the MIC ([11]; isolate 3, M. abscessus complex, erm gene type MAB30)?
A: 0.25 µg/mL (≈ 0.427 µM)

Q: What about the MIC ([11]; isolate 4, M. abscessus complex, erm gene type massiliense) of the same compound?
A: 0.25 µg/mL (≈ 0.427 µM)

Q: What about the MIC ([11]; isolate 5, M. abscessus complex, erm gene type massiliense/subsp. abs hybrid) of the same compound?
A: 0.25 µg/mL (≈ 0.427 µM)

Q: And the MIC ([11]; isolate 6, M. abscessus complex, erm gene type Type 1 abscessus)?
A: 0.12 µg/mL (≈ 0.205 µM)

Q: What about the MIC ([11]; isolate 7, M. abscessus complex, erm gene type Type 1 abscessus) of the same compound?
A: 0.25 µg/mL (≈ 0.427 µM)

Q: What about the MIC ([11]; isolate 8, M. abscessus complex, erm gene type Type 1 abscessus) of the same compound?
A: 0.12 µg/mL (≈ 0.205 µM)

Q: And the MIC ([11]; isolate 9, M. abscessus complex, erm gene type Type 1 abscessus)?
A: 0.25 µg/mL (≈ 0.427 µM)

Q: And the MIC ([11]; isolate 10, M. abscessus complex, erm gene type Type 1 abscessus)?
A: 0.12 µg/mL (≈ 0.205 µM)

Q: What about the MIC ([11]; isolate 11, M. abscessus complex, erm gene type Type 6 abscessus) of the same compound?
A: 0.06 µg/mL (≈ 0.102 µM)

Q: And the MIC ([11]; isolate 12, M. abscessus complex, erm gene type Type 6 abscessus)?
A: 0.12 µg/mL (≈ 0.205 µM)

Q: And the MIC ([11]; isolate 13, M. abscessus complex, erm gene type Type 6 abscessus)?
A: 0.25 µg/mL (≈ 0.427 µM)

Q: And the MIC ([11]; isolate 14, M. abscessus complex, erm gene type Type 6 abscessus)?
A: 0.12 µg/mL (≈ 0.205 µM)

Q: What about the MIC ([11]; isolate 15, M. abscessus complex, erm gene type Type 7 abscessus) of the same compound?
A: 0.06 µg/mL (≈ 0.102 µM)

Q: What about the MIC ([11]; isolate 16, M. abscessus complex, erm gene type Type 7 abscessus) of the same compound?
A: 0.12 µg/mL (≈ 0.205 µM)

Q: What about the MIC ([11]; isolate 17, M. abscessus complex, erm gene type Type 8 abscessus) of the same compound?
A: 0.12 µg/mL (≈ 0.205 µM)
